# Read-outs that look alike come from different tables or passages of the source.
# How the values were obtained:
# [1] = tested on: ES cells stably transfected with the α-MHC-SEAP vector (D3 mouse embryonic stem cells), differentiation into cardiac cells; settings: EB culture supernatants after 13 days
# Procedure: After 13 days culture supernatants were assayed for SEAP activity. Shown are mean values of duplicate samples from which background SEAP activity was substracted. Activities are expressed as percentage of SEAP activity in samples containing only solvent (DMSO) but no retinoic acid.
# All incubations of cell cultures were performed at 37° C. in a humidified atmosphere containing 5% CO2.
# Cells were collected by centrifugation (800 g for 5 min) and resuspended in Iscove's Modified Dulbecco's Medium (IMDM, Invitrogen) supplemented with 20% (v/v) fetal bovine serum (FBS, Invitrogen) at a density of 2×10^6 cells/ml. To aggregate ES cells, 4 ml of this suspension were incubated on a 6 cm bacteriological dish (Greiner) on a rocking platform (GFL 3006) with agitation (50 rpm). After 6 hours, 2 ml of that culture were added to 13 ml IMDM containing 20% FBS in a T25 flask (Falcon). The flask was incubated with rocking (50 rpm; GFL 3006) for 18 hours. During this procedure ES cell aggregates (embryoid bodies; EBs) were formed.
# In 10 cm petri dishes (bacteriological grade, Greiner) medium was prepared consisting of IMDM supplemented with 20% FBS and retinoic acid added from above stocks to yield final concentrations of 10^−7 M, 10^−8 M, 10^−9 M, 10^−10 M, 10^−11 M, and 10^−12 M retinoic acid, respectively. One dish received DMSO (final concentration 0.1% (v/v)) without retinoic acid (solvent control). Each dish contained 10 ml of medium. 70 EBs were transferred into each petri dish and incubated for 4 days.
# Subsequently, EBs were transferred to 6-well plates (tissue culture grade; Becton-Dickinson). Each well contained 3 ml IMDM with 20% FBS and retinoic acid and DMSO as described above for the culture in 10 cm dishes. […]
# Samples were assayed for SEAP activity using the Great EscAPe SEAP Fluorescence Detection Kit (Becton-Dickinson) following the manufacturer's instructions. Fluorescence was measured using a microplate reader (Safire, Tecan). Background activity was determined by assaying a sample of fresh medium (Knockout™ D-MEM supplemented with 20% (v/v) Knockout™ SR).
# ES cells = settings: in vitro; literature (Seiler et al., ALTEX 2002); cited from earlier work
compound,measurement,setting,value
"CC1=C(/C=C/C(C)=C/C=C/C(C)=C/C(=O)O)C(C)(C)CCC1 [retinoic acid, all-trans retinoic acid]",SEAP activity,"[1]; 10^−8 M retinoic acid, solvent (DMSO) control",decreased sharply
same,SEAP activity,[1]; retinoic acid at concentrations higher than 10^−8 M (10^−7 M),no activity was observed
same,SEAP activity as compared to controls,"[1]; retinoic acid below 10^−9 M, solvent (DMSO) control",no influence
same,generation of cardiomyocytes from ES cells,ES cells,inhibit the generation of cardiomyocytes

# Source: patent publication US20090328243A1, “Secreted proteins as markers for cell differentiation” (priority 2003, published 2009)
